{"source": "patent US8575189B2", "about": "“Tacrolimus preparation for external applications” (Takata Seiyaku Co., Ltd., priority 2008, dated 2013)", "assay": "Solubility of tacrolimus in triacetin", "type": "physicochemical", "settings": "free form, in triacetin at 25° C.", "method": "[drawing 2] (chemical name: glycerin triacetate). The properties of triacetin are described in Iyakuhin Tenkabutsu Kikaku 2003 and Iyakuhin Tenkabutsu Jiten 2007 (Yakuji Nippo), which are incorporated herein by reference. Tacrolimus in a free form may dissolve in triacetin at 25° C. in the ratio of about 12.5 g/100 g. Preferably, the external preparation of the present invention comprises triacetin at 0.1 to 30% by weight, more preferably 1.0 to 20% by weight, still more preferably 3.0 to 6.0% by weight, most preferably 4.0 to 5.0% by weight for the total amount of the preparation.", "data": [{"substance": "17-aryl-1,14-dihydroxy-12-[2-(4-hydroxy-3-methoxycyclohexyl)-1-methylbinyl]-23,25-dimethoxy-13,19,21,27-tetramethyl-11,28-dioxa-4-azatricyclo [22.3.1.04, 9] octacos-18-en-2,3,10,16-tetraone [Tacrolimus]", "values": [{"measurement": "dissolve in triacetin (ratio)", "value": "about 12.5 g/100 g"}]}]}
